# Tests used:
# Experiment in all cases: KINOMEscan competition binding
# Settings in all cases: compound 10.0 µM
# AXL (human) = AXL (human) (UniProt P30530)
# CAMK1G (human) = CAMK1G (human) (UniProt Q96NX5)
# CAMK2D (human) = CAMK2D (human) (UniProt Q13557)
# CDK5 (human) = CDK5 (human) (UniProt Q00535)
# CHEK1 (human) = CHEK1 (human) (UniProt O14757)
# CHUK (human) = CHUK (human) (UniProt O15111)
# CSF1R (human) = CSF1R (human) (UniProt P07333)
# CSNK2A1 (human) = CSNK2A1 (human) (UniProt P68400)
# DCLK3 (human) = DCLK3 (human) (UniProt Q9C098)
# DMPK (human) = DMPK (human) (UniProt Q09013)
# Chain of DMPK (human) (Q09013 whole entry, looked up): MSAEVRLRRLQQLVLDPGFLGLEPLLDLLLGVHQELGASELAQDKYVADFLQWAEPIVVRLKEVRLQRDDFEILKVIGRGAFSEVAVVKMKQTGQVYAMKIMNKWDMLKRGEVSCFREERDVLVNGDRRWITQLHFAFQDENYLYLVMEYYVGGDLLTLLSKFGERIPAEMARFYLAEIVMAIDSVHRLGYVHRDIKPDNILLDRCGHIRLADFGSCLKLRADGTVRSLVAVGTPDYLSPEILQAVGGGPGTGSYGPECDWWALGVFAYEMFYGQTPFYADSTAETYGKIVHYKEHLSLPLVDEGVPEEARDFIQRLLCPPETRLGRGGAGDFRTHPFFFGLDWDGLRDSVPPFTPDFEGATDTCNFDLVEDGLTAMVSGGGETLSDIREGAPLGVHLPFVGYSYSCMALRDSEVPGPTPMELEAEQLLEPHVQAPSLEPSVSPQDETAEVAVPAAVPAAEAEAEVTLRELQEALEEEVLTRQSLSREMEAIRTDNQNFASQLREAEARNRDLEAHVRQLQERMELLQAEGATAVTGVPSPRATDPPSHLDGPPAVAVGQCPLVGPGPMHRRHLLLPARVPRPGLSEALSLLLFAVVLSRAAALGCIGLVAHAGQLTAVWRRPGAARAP
# EPHA1 (human) = EPHA1 (human) (UniProt P21709)
# FGFR1 (human) = FGFR1 (human) (UniProt P11362)
# FLT1 (human) = FLT1 (human) (UniProt P17948)
# GSK3B (human) = GSK3B (human) (UniProt P49841)
# Chain of GSK3B (human) (P49841 whole entry, looked up): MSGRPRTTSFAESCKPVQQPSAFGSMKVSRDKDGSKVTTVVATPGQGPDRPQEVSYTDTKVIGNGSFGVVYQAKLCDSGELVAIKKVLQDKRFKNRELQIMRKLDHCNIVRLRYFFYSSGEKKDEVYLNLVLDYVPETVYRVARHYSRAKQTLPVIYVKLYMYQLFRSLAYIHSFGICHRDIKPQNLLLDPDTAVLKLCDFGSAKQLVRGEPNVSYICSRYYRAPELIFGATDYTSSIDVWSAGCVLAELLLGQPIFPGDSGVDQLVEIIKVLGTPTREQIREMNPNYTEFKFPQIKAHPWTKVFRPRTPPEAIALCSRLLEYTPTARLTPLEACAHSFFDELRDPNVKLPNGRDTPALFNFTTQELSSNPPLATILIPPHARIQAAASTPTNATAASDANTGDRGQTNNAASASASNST
# INSRR (human) = INSRR (human) (UniProt P14616)
# ITK (human) = ITK (human) (UniProt Q08881)
# LYN (human) = LYN (human) (UniProt P07948)
# MAP2K1 (human) = MAP2K1 (human) (UniProt Q02750)
# MAP2K2 (human) = MAP2K2 (human) (UniProt P36507)
# MAP3K12 (human) = MAP3K12 (human) (UniProt Q12852)
# MAPK12 (human) = MAPK12 (human) (UniProt P53778)
# MAPKAPK2 (human) = MAPKAPK2 (human) (UniProt P49137)
# MARK4 (human) = MARK4 (human) (UniProt Q96L34)
# NEK5 (human) = NEK5 (human) (UniProt Q6P3R8)
# NTRK2 (human) = NTRK2 (human) (UniProt Q16620)
# PKN1 (human) = PKN1 (human) (UniProt Q16512)
# Chain of PKN1 (human) (Q16512 whole entry, looked up): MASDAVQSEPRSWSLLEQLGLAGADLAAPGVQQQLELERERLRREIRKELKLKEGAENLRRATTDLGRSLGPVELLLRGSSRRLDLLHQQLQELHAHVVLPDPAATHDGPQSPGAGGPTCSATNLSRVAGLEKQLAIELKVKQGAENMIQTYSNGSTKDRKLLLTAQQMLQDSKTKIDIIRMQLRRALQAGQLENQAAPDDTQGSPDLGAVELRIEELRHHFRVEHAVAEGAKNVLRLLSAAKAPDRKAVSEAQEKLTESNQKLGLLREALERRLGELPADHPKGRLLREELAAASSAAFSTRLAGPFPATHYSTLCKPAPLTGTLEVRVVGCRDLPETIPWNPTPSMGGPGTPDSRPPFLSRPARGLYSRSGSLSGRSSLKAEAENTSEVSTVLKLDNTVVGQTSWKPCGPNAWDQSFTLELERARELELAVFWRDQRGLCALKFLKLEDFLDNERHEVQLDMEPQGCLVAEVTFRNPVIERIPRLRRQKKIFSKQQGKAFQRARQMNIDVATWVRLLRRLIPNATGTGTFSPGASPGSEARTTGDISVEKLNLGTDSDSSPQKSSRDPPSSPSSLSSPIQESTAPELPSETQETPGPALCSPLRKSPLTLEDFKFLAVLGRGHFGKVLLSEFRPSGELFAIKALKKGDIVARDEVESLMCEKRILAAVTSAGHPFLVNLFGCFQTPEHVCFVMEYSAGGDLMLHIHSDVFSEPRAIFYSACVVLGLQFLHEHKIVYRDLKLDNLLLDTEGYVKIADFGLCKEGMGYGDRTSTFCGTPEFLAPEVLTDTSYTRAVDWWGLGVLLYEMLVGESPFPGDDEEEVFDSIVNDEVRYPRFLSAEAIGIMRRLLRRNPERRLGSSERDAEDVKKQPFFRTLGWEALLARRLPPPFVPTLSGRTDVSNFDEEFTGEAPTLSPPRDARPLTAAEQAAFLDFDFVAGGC
# PKN2 (human) = PKN2 (human) (UniProt Q16513)
# PLK4 (human) = PLK4 (human) (UniProt O00444)
# PRKCH (human) = PRKCH (human) (UniProt P24723)
# Chain of PRKCH (human) (P24723 whole entry, looked up): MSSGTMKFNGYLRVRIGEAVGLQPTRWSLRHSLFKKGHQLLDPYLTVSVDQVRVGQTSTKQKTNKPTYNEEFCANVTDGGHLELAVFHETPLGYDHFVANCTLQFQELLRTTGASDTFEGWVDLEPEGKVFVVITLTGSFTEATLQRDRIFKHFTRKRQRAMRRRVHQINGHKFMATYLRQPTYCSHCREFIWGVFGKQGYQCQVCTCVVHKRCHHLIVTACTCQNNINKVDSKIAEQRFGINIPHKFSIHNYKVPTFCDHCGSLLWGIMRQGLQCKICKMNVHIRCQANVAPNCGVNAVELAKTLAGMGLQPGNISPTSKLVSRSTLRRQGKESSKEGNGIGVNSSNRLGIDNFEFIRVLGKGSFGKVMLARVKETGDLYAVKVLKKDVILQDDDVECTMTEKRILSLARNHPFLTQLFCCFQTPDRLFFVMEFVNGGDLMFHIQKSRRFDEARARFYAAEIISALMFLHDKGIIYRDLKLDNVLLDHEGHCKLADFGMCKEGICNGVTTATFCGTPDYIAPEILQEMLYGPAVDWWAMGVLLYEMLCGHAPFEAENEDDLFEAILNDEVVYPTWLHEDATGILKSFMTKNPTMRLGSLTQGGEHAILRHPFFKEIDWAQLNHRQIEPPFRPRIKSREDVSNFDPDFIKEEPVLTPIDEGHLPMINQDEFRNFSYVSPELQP
# RIPK1 (human) = RIPK1 (human) (UniProt Q13546)
# ROCK2 (human) = ROCK2 (human) (UniProt O75116)
# Chain of ROCK2 (human) (O75116 whole entry, looked up): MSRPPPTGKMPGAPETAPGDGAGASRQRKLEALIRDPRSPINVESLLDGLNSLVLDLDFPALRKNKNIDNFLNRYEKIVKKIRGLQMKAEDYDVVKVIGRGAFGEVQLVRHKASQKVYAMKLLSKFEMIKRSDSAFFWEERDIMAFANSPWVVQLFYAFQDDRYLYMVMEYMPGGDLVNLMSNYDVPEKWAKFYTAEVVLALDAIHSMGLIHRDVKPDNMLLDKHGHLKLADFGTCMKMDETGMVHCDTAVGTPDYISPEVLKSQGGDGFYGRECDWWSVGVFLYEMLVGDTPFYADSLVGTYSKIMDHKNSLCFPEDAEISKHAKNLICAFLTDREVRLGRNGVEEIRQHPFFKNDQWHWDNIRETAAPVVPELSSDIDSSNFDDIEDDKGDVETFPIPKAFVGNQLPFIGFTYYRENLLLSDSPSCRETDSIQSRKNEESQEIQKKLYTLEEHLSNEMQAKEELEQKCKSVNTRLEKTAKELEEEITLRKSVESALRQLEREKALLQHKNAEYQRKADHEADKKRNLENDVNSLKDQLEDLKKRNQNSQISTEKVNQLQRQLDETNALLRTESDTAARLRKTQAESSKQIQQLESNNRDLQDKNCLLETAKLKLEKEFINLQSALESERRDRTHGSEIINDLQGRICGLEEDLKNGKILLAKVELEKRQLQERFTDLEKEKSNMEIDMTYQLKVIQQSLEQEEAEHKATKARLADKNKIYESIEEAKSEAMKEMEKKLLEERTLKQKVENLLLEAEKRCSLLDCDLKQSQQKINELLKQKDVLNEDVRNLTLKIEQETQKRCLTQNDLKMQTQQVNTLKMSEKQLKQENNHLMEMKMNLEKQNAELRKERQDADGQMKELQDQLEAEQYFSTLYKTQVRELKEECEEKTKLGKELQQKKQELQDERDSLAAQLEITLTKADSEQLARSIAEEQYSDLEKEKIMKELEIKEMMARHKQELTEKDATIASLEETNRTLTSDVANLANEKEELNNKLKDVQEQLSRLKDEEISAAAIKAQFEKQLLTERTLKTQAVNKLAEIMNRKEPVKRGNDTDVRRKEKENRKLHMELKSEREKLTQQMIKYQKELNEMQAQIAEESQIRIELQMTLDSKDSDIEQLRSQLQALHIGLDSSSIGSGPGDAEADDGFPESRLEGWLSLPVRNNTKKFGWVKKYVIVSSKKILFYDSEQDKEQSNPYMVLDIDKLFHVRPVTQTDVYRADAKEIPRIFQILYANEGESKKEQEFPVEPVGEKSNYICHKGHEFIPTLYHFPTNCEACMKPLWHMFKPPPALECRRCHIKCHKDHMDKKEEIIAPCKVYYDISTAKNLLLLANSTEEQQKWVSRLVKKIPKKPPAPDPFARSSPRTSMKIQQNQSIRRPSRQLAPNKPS
# RPS6KA4 KD2 (human) = RPS6KA4 KD2 (human) (UniProt O75676)
# RPS6KA6 KD1 (human) = RPS6KA6 KD1 (human) (UniProt Q9UK32)
# SLK (human) = SLK (human) (UniProt Q9H2G2)
# SRMS (human) = SRMS (human) (UniProt Q9H3Y6)
# SRPK3 (human) = SRPK3 (human) (UniProt Q9UPE1)
# SYK (human) = SYK (human) (UniProt P43405)
# TSSK1B (human) = TSSK1B (human) (UniProt Q9BXA7)
# TTK (human) = TTK (human) (UniProt P33981)
# ULK3 (human) = ULK3 (human) (UniProt Q6PHR2)
# Chain of CHEK1 (human) (O14757 whole entry, looked up): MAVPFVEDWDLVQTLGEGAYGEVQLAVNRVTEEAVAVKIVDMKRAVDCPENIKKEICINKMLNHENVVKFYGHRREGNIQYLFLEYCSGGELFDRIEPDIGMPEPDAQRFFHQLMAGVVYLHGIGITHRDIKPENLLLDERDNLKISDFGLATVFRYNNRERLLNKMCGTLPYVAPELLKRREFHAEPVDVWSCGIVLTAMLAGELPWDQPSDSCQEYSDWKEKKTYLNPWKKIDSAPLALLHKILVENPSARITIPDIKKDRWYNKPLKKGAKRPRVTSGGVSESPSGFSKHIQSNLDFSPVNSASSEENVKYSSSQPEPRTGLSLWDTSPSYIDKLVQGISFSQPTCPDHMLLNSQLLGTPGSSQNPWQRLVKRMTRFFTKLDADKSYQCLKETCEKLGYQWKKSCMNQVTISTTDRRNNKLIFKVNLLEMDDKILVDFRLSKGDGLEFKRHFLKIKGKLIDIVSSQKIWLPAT
# Chain of CAMK2D (human) (Q13557 whole entry, looked up): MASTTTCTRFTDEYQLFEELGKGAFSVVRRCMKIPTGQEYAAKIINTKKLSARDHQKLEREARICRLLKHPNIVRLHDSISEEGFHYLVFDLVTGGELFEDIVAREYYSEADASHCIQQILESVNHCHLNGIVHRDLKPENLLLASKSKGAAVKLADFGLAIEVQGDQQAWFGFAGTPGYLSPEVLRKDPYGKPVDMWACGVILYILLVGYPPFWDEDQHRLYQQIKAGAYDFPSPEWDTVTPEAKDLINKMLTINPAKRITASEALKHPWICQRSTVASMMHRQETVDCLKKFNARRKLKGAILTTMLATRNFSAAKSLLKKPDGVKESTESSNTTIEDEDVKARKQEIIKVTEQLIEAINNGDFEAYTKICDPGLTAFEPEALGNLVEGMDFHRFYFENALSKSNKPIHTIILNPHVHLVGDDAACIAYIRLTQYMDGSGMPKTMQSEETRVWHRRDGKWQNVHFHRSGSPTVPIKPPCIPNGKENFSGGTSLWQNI
SMILES,"kinase still bound, per cent of control (AXL (human)) [%]","kinase still bound, per cent of control (CAMK1G (human)) [%]","kinase still bound, per cent of control (CAMK2D (human)) [%]","kinase still bound, per cent of control (CDK5 (human)) [%]","kinase still bound, per cent of control (CHEK1 (human)) [%]","kinase still bound, per cent of control (CHUK (human)) [%]","kinase still bound, per cent of control (CSF1R (human)) [%]","kinase still bound, per cent of control (CSNK2A1 (human)) [%]","kinase still bound, per cent of control (DCLK3 (human)) [%]","kinase still bound, per cent of control (DMPK (human)) [%]","kinase still bound, per cent of control (EPHA1 (human)) [%]","kinase still bound, per cent of control (FGFR1 (human)) [%]","kinase still bound, per cent of control (FLT1 (human)) [%]","kinase still bound, per cent of control (GSK3B (human)) [%]","kinase still bound, per cent of control (INSRR (human)) [%]","kinase still bound, per cent of control (ITK (human)) [%]","kinase still bound, per cent of control (LYN (human)) [%]","kinase still bound, per cent of control (MAP2K1 (human)) [%]","kinase still bound, per cent of control (MAP2K2 (human)) [%]","kinase still bound, per cent of control (MAP3K12 (human)) [%]",other results
C=CC(=O)Nc1cccc(Nc2nc(N[C@H]3CC[C@H](N(C)C)CC3)nc3c2ncn3C(C)C)c1,40,93,53,80,87,82,52,54,86,8.8,72,76,100,94,64,65,50,83,100,71,"kinase still bound, per cent of control (MAPK12 (human)): 96%; kinase still bound, per cent of control (MAPKAPK2 (human)): 100%; kinase still bound, per cent of control (MARK4 (human)): 94%; kinase still bound, per cent of control (NEK5 (human)): 94%; kinase still bound, per cent of control (NTRK2 (human)): 5.3%; kinase still bound, per cent of control (PKN1 (human)): 22%; kinase still bound, per cent of control (PKN2 (human)): 61%; kinase still bound, per cent of control (PLK4 (human)): 85%; kinase still bound, per cent of control (PRKCH (human)): 91%; kinase still bound, per cent of control (RIPK1 (human)): 100%; kinase still bound, per cent of control (ROCK2 (human)): 10%; kinase still bound, per cent of control (RPS6KA4 KD2 (human)): 52%; kinase still bound, per cent of control (RPS6KA6 KD1 (human)): 8.2%; kinase still bound, per cent of control (SLK (human)): 26%; kinase still bound, per cent of control (SRMS (human)): 88%; kinase still bound, per cent of control (SRPK3 (human)): 47%; kinase still bound, per cent of control (SYK (human)): 72%; kinase still bound, per cent of control (TSSK1B (human)): 97%; kinase still bound, per cent of control (TTK (human)): 51%; kinase still bound, per cent of control (ULK3 (human)): 52%"
C=CC(=O)Nc1cccc(Oc2nc(Nc3ccc(N4CCN(C)CC4)cc3OC)ncc2Cl)c1,100,100,100,100,7,100,14,100,0.35,17,100,10,100,100,13,0.55,100,100,100,100,"kinase still bound, per cent of control (MAPK12 (human)): 100%; kinase still bound, per cent of control (MAPKAPK2 (human)): 100%; kinase still bound, per cent of control (MARK4 (human)): 16%; kinase still bound, per cent of control (NEK5 (human)): 100%; kinase still bound, per cent of control (NTRK2 (human)): 100%; kinase still bound, per cent of control (PKN1 (human)): 100%; kinase still bound, per cent of control (PKN2 (human)): 100%; kinase still bound, per cent of control (PLK4 (human)): 0.2%; kinase still bound, per cent of control (PRKCH (human)): 100%; kinase still bound, per cent of control (RIPK1 (human)): 9.4%; kinase still bound, per cent of control (ROCK2 (human)): 27%; kinase still bound, per cent of control (RPS6KA4 KD2 (human)): 16%; kinase still bound, per cent of control (RPS6KA6 KD1 (human)): 100%; kinase still bound, per cent of control (SLK (human)): 100%; kinase still bound, per cent of control (SRMS (human)): 100%; kinase still bound, per cent of control (SRPK3 (human)): 8.4%; kinase still bound, per cent of control (SYK (human)): 100%; kinase still bound, per cent of control (TSSK1B (human)): 100%; kinase still bound, per cent of control (TTK (human)): 2%; kinase still bound, per cent of control (ULK3 (human)): 12%"

# Reference: the kinase profiling compilation of Christmann-Franck et al. (2016)
